This is an account of results in patent publication US20220260587A1, “METHOD” (Worg Pharmaceuticals (Hangzhou) Co., Ltd., priority 2019, published 2022).

One test relates to MHCII. The following applies: test peptides of the competition assay; cited from earlier work.
A further test has as its system MHCII on dendritic cells. In words: In vivo MHCII loading assay. Also noted: species or system HLA-DRtg mice. To be noted: for CD4+ T cell activation (IFNγ) by dendritic cells loaded in vivo: 100 μg peptide subcutaneously, spleen CD11c+ cells 2 hours post injection, co-culture 72 hours, FIG. 4. As for the experimental part:
Response of peptide-specific CD4^+ T cells towards peptide loaded in vivo on dendritic cells. […] 2 h post injection, spleens were dissected and CD11c^+ cells (dendritic cells) were isolated. These CD11c^+ cells were co-cultured with peptide-specific CD4+ cells for 72 h at 37° C. IFNγ was measured in the supernatant of these cultures to evaluate the response to peptide by the CD4^+ T cells.
In particular, HLA-DRtg mice were injected with 100 μg of peptide in 100 μl PBS subcutaneously in the flank. Control animals received a subcutaneous injection of 100 μl PBS. After 2 hours, spleens were harvested and single-cell suspensions were made. CD11c^+ cells (splenic dendritic cells) were positively selected using CD11c microbeads according to the manufacturer's instructions (Miltenyi Biotec, Bergisch Gladbach, Germany). Average purities of >92% were reached.
1×10^5 CD11c^+ cells were co-cultured with 1×10^5 CD4^+ cells (primary T cells) in round bottom 96-well plates in X-vivo 15 medium (supplemented with 2 mM L-glutamine, 50 U/mL penicillin and 50 U/mL streptomycin; Lonza). The CD4^+ cells were isolated from HLA-DRtg mice that were immunised subcutaneously in the base of the tail with 50 μg peptide emulsified in CFA (peptide/CFA). Ten days after immunisation, draining lymph nodes (LN) and spleens were harvested. LN cells and splenocytes were isolated and CD4^+ T cells were isolated by negative selection using Magnisort Mouse CD4 Isolation kit (ThermoFisher Scientific) according to the manufacturer's instructions.
After 72 hours, supernatant of the CD11c^+-CD4^+ co-cultures was collected. CD4^+ T cell activation was analysed by IFNγ ELISA (R&D Systems, Abingdon, UK). In a parallel experiment, CD4^+ T cell responses towards peptide added in vitro were assessed to make sure the T cells recognize the peptides presented by the CD11c^+ cells.

The next test deals with EAE. To be noted: cited from earlier work.
For test [1], the target named is MHCII (HLA-DR2) with bound CLIP (MHCII-CLIP) (Homo sapiens, UniProt P01903+P01911). Briefly: CLIP displacement assay. In kind it is cell-based. The following applies: MBP-specific T cell line 24 hours. As for the experimental part:
Response of MBP-specific T cell line to HLA-DR2 monomers following peptide exchange. Biotinylated HLA-DR2 (DRB1*1501) monomers, with the CLIP peptide bound, were attached to neutravidin coated 96 well plates. Wells were incubated with the indicated concentration of MBP 83-99, a dominant HLA-DR2 restricted epitope of MBP, for 16 hours and the plates washed. Control wells were coated with the DR2 monomer pre-loaded with the MBP 83-99 peptide. A T cell line specific for MBP was incubated with the monomers at 37° C. for 24 hours and response assessed by measurement of secreted IL-2.
MHCII (HLA-DR2) with bound CLIP (MHCII-CLIP) was affixed to wells of a 96-well plate using neutravidin and biotin. In particular, 96-well plates were coated with 15 μg/ml neutravidin in PBS overnight at 4° C. Plates were washed twice with wash buffer (0.1% BSA/PBS) and blocked with 1% BSA in PBS for 2 hours at room temperature. Plates were washed twice with wash buffer and 0.125 μg/ml of biotin-MHCII-CLIP in PBS was added for a 2-hour incubation at room temperature in a humid atmosphere. Plates were washed 4 times with wash buffer, leaving wells coated in MHCII-CLIP. Positive control wells were coated with MHCII with bound MBP 83-99 (instead of CLIP). […]
T cell activation was assessed by measuring secreted IL2.

Test [2] relates to response to protein antigen (SAg) in lymph node and spleen cells. In words: Ex vivo tolerance assay. It counts as in vivo, HLA-DR transgenic mice. To be noted: dose-escalating subcutaneous injections (0,1; 1; 10 and 3×100 μg), IFNg response to SAg, FIG. 5. As for the experimental part:
Response to protein antigen in lymph nodes (A) and spleens (B) of peptide-treated and non-treated mice. HLA-DR transgenic mice were treated with a dose-escalating regime of subcutaneous injections (0,1; 1; 10 and 3×100 μg every other day) of a tolerogenic (peptide Q) or non-tolerogenic (peptide P) peptide, or control injections (PBS). Afterwards, mice were immunized with peptide antigen in CFA and 10 days later, lymph nodes and spleens were dissected. Lymph node and spleen cells were cultured in vitro for 3 days at 37° C. in the presence of protein antigen (SAg) or positive control (PPD). The response of the cells towards the protein antigen was evaluated by measuring IFNg levels in supernatant of the cultures. *p<0.05
HLA-DRtg mice were injected subcutaneously in the flank region with 0.1 μg, 1 μg and 10 μg of peptide on days −15, −13 and −11 respectively, followed by 3 injections of 100 μg peptide on days −8, −6 and −4 (dose escalation schedule). On day 0, the mice were immunised subcutaneously in the base of the tail with 50 μg antigen (parental peptide) emulsified in CFA (peptide/CFA).
Ten days after immunisation, draining lymph nodes (LN) and spleens were harvested. […]
IFNγ concentrations in supernatants were assessed by cytokine ELISA (R&D Systems, Abingdon, UK) and cell activation was measured.

Sequence of MHCII (HLA-DR2) with bound CLIP (MHCII-CLIP) (P01903 26-254): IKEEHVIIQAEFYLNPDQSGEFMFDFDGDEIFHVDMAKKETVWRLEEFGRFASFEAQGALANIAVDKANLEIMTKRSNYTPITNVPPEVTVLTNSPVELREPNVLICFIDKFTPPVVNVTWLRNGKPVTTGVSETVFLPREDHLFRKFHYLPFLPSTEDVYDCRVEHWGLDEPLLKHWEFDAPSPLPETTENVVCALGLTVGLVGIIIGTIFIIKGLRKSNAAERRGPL
Sequence of MHCII (HLA-DR2) with bound CLIP (MHCII-CLIP) (P01911 30-227 limits assumed): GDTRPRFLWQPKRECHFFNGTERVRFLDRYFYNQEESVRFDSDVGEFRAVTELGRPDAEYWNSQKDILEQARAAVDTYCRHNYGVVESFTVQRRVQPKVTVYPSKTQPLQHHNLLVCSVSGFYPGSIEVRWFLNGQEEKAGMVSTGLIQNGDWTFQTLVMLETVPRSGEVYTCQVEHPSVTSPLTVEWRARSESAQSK

Turning to “NPILLWQPIPVHTVPLSEDQ (H-NPILLWQPIPVHTVPLSEDQ-NH2) [Peptide J, reference compound]”, in the test with MHCII, the “affinity for MHCII (known)” value is given as “good affinity”.

Consider “GILVSYQIKVK (H-GILVSYQIKVK-NH2) [Peptide N]”, for which the “CD4+ T cell activation (IFNγ) by dendritic cells loaded in vivo” value in the test with MHCII on dendritic cells is “did not cause T cell activation”. Also, the HLA-DR binding result in the test on MHCII on dendritic cells (designation in legend of FIG. 4) is “HLA-DR non-binding”.

For the substance “MBP peptide 89-101: myelin basic protein (MBP) peptide 89-101, immunodominant antigen after immunisation (PHLIRLFSRDAPG; UniProt P02686 89-101, looked up, fragment)”, in the test with EAE (administered in solution), the inducing tolerance result was “ineffective”. Also, the “immunogen: priming for T cell reactivity and induction of EAE” value in the test on EAE (after immunisation) is “very effective immunogen”.

Regarding ENPVVHFFKNIVTPRIP [MBP 83-99], the “T cell activation (secreted IL2)” value in test [1] (MBP 83-99 at 3 μM added to MHCII-CLIP (CLIP monomer) for 16 hours) and in test [1] (MBP 83-99 at 30 μM added to MHCII-CLIP (CLIP monomer) for 16 hours) was “T cells are activated” throughout.

On to “LILLPLLANNRERRGIALDGKIKHEDTNLASSTIIKEG [Peptide K]”, for which, in the test on MHCII, the “affinity for MHCII (known)” value is given as “poor affinity”.

Regarding “KKKGILVSYQIKVKKKK (H-KKKGILVSYQIKVKKKK-NH2) [Peptide 0]”, the “CD4+ T cell activation (IFNγ) by dendritic cells loaded in vivo” value in the test with MHCII on dendritic cells is “did”.

For “KKKIFKKISRDKSVTIYLKKK (H-KKKIFKKISRDKSVTIYLKKK-NH2) [Peptide Q]”, the tolerogenicity entry in test [2] is listed as “tolerogenic”.

“GLKMFPDLTKVYSTD (H-GLKMFPDLTKVYSTD-NH2) [Peptide L]”: the “affinity for MHCII (known)” value in the test on MHCII is “good affinity”.

As for “KKEIFKKISRDKSVTIYLEKK (H-KKEIFKKISRDKSVTIYLEKK-NH2) [Peptide M]”, the “affinity for MHCII (known)” value in the test with MHCII was “poor affinity”.

In the case of “KKIFKKISRDKSVTIYLKK (H-KKIFKKISRDKSVTIYLKK-NH2) [Peptide P]”, the tolerogenicity entry in test [2] is listed as “non-tolerogenic”.
